Several values for one entry are separate records, joined by “and”; a condition that tells them apart may be missing. Equal values may be shown once.
Key:
[1] = RUN B: ethylene-octene polymerization in parallel pressure reactor, activator diluent toluene or methylcyclohexane; conditions: ethylene-octene copolymerization; for activity, molecular weight and co-monomer incorporation with methyl cyclohexane versus toluene as activator diluent: FIGS. 2-4; for activity: Cat 1 (MCN-1)
Protocol: RUN B: Polymerization in Parallel Pressure Reactor.
A series of ethylene-octene polymerizations were performed in the parallel pressure reactor according to the procedure described above. […] In a typical experiment an automated syringe was used to introduce into the reactor the following reagents, if utilized, in the following order: isohexane (0.35 mL), an isohexane solution of TNOAL scavenger (0.005 M, 60 μL), additional isohexane (0.35 mL), a toluene solution of the respective polymerization catalyst (150 μL, 0.4 mM, 20 nm [cat]/100 μL [toluene]), additional isohexane (0.35 mL), a toluene or methylcyclohexane solution of the respective activator (150 μL, 0.4 mM, (20 nm [act]/100 μL[ diluent])), then additional isohexane so that the total solvent volume for each run was 5 mL. Catalyst and activator were used in a 1:1 ratio. Each reaction was performed at a specified temperature range between 50 and 120° C., typically 95° C., while applying about 100 psig of ethylene (monomer) gas. Each reaction was allowed to run for about 1 hour (˜3600 seconds) or until approximately 20 psig of ethylene gas uptake was observed, at which point the reactions were quenched with air (˜300 psig). When sufficient polymer yield was attained (e.g., at least ˜10 mg), the polyethylene product was analyzed by Rapid GPC, described below.
In a typical experiment, the anilinium borate activators were combined with toluene or methylcyclohexane as diluent and introduced to the parallel, pressure reactor via syringe. By this mechanism of activator introduction, only well dissolved activators could be delivered to the reactor providing a means to discriminate between the polymerization performance of long chain soluble anilinium borates vs. conventional anilinium borates. Following addition of activator, the catalyst Cat 1 was introduced, via syringe as well-dissolved toluene solution and the polymerization was conducted per the methodology described above.

[2] = Solubility studies of the activators (saturated solution in isohexane or methylcyclohexane); format: physicochemical; conditions: methylcyclohexane
[3] = as above; format: physicochemical; conditions: for Solubility limit in i-hexane (mM at 25° C.) / Solubility limit in i-hexane (wt % at 25° C.): isohexane; for Solubility limit in MeCy (mM at 25° C.): methylcyclohexane
Protocol: Solubility Studies of the Activators
Procedure for Solid Activators.
A saturated solution of each of the solid ammonium borate activators was prepared by stirring an excess of the activator with either isohexane or methylcyclohexane solvent for several hours at 25° C. The mixture was then filtered and a known volume of the filtrate was evaporated to dryness in a tared vial. The vial was then weighed to determine the mass of activator that was dissolved in the aliquot. The concentration of the saturated solution is presented in millimoles of activator per liter of solution (mM).
Procedure for Activators that Form Emulsions.
A saturated solution of the activator was prepared by slowly adding the solvent to a pre-weighed amount of the activator. The final volume was determined as the minimum amount of solvent required to convert the emulsion into a homogeneous solution. The concentration of the saturated solution is presented in millimoles of activator per liter of solution (mM). Alternatively, an emulsion of the activator was prepared by adding the solvent to an excess amount of activator. The resulting emulsion was separated from the undissolved solids by decanting the emulsion into a tared vial. Solvent was then added dropwise until the emulsion became homogeneous. The mass of the final solution was measured and then the solvent was evaporated to dryness to obtain the mass of the activator. The concentration of the saturated solution is presented in millimoles of activator per liter of solution (mM).

[4] = Propylene homopolymerization in parallel pressure reactor, MCN-1 with ammonium borate activators; conditions: propylene, MCN-1 = 20 nmol, activator = 20 nmol, isohexane, TNOAL 500 nmol
Excerpt: Polymerization in Parallel Pressure Reactor
Solvents, polymerization-grade toluene, and isohexane were supplied by ExxonMobil Chemical Company and purified by passing through a series of columns: two 500 cc Oxyclear cylinders in series from Labclear (Oakland, Calif.), followed by two 500 cc columns in series packed with dried 3 Å mole sieves (8-12 mesh; Aldrich Chemical Company), and two 500 cc columns in series packed with dried 5 Å mole sieves (8-12 mesh; Aldrich Chemical Company). 1-octene (C8) and 1-hexene (C6) (98%, Aldrich Chemical Company) were dried by stirring over NaK overnight followed by filtration through basic alumina (Aldrich Chemical Company, Brockman Basic 1).
Solutions of the metal complexes and activators were prepared in a drybox using toluene or methylcyclohexane. Concentrations were typically 0.2 mmol/L. Tri-n-octylaluminum (TNOAL, neat, AkzoNobel) was typically used as a scavenger. Concentration of the TNOAL solution in toluene ranged from 0.5 to 2.0 mmol/L.
Polymerizations were carried out in a parallel pressure reactor, as generally described in U.S. Pat. Nos. 6,306,658; 6,455,316; 6,489,168; WO 00/09255; and Murphy, V. et al. (2003) “A Fully Integrated High-Throughput Screening Methodology for the Discovery of New Polyolefin Catalysts: Discovery of a New Class of High Temperature Single-Site Group (IV) Copolymerization Catalysts,” J. Am. Chem. Soc., v. 125, pp. 4306-4317, each of which is fully incorporated herein by reference. […] Although the specific quantities, temperatures, solvents, reactants, reactant ratios, pressures, and other variables are frequently changed from one polymerization run to the next, the following describes a typical polymerization performed in a parallel pressure reactor.
Catalyst systems dissolved in solution were used in the polymerization examples below, unless specified otherwise.
RUN A: Propylene Homopolymerization (PP).
The reactor was prepared as described above and purged with propylene. For the examples in Table 2, the catalyst and activator solutions were prepared in toluene. […] Isohexane was then injected into each vessel at room temperature followed by a predetermined amount of propylene gas. The reactor was heated to the set temperature while stirring at 800 rpm, and the scavenger, activator and catalyst solutions were injected sequentially to each vessel. The polymerization was allowed to proceed as described previously.
A series of propylene polymerizations were performed in parallel pressure reactors (PPRs) developed by Symyx Technologies, Inc. In these polymerizations, the metallocene rac-dimethylsilyl-bis(indenyl)hafnium dimethyl (MCN-1) was used along with several different ammonium borate activators. Polymerizations were performed at 85° C. and 100° C.
Propylene homopolymerization (PP).
A series of propylene polymerizations were performed in the parallel pressure reactor similar to the procedure described above. In these studies rac-dimethylsilyl-bis(indenyl)hafnium dimethyl (MCN-1) was used along with ammonium borate activators.

[5] = activator diluent MeCy (methylcyclohexane)

Row | Solubility limit in MeCy (wt % at 25° C.) [2] [wt %] | Solubility limit in i-hexane (mM at 25° C.) [3] [mM] | Solubility limit in i-hexane (wt % at 25° C.) [3] [wt %] | Solubility limit in MeCy (mM at 25° C.) [3] [mM] | Compound | activity ([1]; activator diluent Toluene) | also measured
1 |  |  |  |  | CCCCCCCCCCCCCCCCCCc1ccc([NH+](CCCCCCCCCCCCCCCCCC)CCCCCCCCCCCCCCCCCC)cc1.Fc1c(F)c(F)c2c(F)c([B-](c3c(F)c(F)c4c(F)c(F)c(F)c(F)c4c3F)(c3c(F)c(F)c4c(F)c(F)c(F)c(F)c4c3F)c3c(F)c(F)c4c(F)c(F)c(F)c(F)c4c3F)c(F)c(F)c2c1F [LCSA 3] | 290.6 kg/mmol/h and 278.0 kg/mmol/h and 289.7 kg/mmol/h and 278.3 kg/mmol/h | activity, molecular weight and co-monomer incorporation with methyl cyclohexane versus toluene as activator diluent ([1]; Cat 1): remain approximately the same; activity [1, 5]: 280.6 kg/mmol/h and 257.6 kg/mmol/h and 334.9 kg/mmol/h and 360.9 kg/mmol/h
2 | 3.0 | 2.0 | 0.32 | 21 | CCCCCCCCCC[NH+](CCCCCCCCCC)c1ccc(CCCC)cc1.Fc1c(F)c(F)c([B-](c2c(F)c(F)c(F)c(F)c2F)(c2c(F)c(F)c(F)c(F)c2F)c2c(F)c(F)c(F)c(F)c2F)c(F)c1F [DDBAH-BF20, 4-butyl-N,N-didecylbenzenaminium-BF20] |  | 
3 | 0.63 | 1.8 | 0.35 | 3.7 | CCCCCCCCCC[NH+](CCCCCCCCCC)c1ccc(C)cc1.Fc1c(F)c(F)c2c(F)c([B-](c3c(F)c(F)c4c(F)c(F)c(F)c(F)c4c3F)(c3c(F)c(F)c4c(F)c(F)c(F)c(F)c4c3F)c3c(F)c(F)c4c(F)c(F)c(F)c(F)c4c3F)c(F)c(F)c2c1F [DDTH-BF28, N,N-didecyl-4-methylanilinium-BF28] |  | 
4 | 0.17 | 1.3 | 0.18 | 1.4 | CCCCCCCCCC[NH+](C)c1ccccc1.Fc1c(F)c(F)c([B-](c2c(F)c(F)c(F)c(F)c2F)(c2c(F)c(F)c(F)c(F)c2F)c2c(F)c(F)c(F)c(F)c2F)c(F)c1F [MDAH-BF20, N-decyl-N-methylanilinium-BF20] |  | 
5 | 3.3 | 2.2 | 0.47 | 17 | CCCCCCCCCC[NH+](CCCCCCCCCC)c1ccc(CCCC)cc1.Fc1c(F)c(F)c2c(F)c([B-](c3c(F)c(F)c4c(F)c(F)c(F)c(F)c4c3F)(c3c(F)c(F)c4c(F)c(F)c(F)c(F)c4c3F)c3c(F)c(F)c4c(F)c(F)c(F)c(F)c4c3F)c(F)c(F)c2c1F [DDBAH-BF28, 4-butyl-N,N-didecylbenzenaminium-BF28] |  | 
6 | >42 | 7.6 | 0.70 | >180 | CCCCCCCCCCCCCCCCCC[NH+](CCCCCCCCCCCCCCCCCC)c1c(C)cc(C)cc1C.Fc1c(F)c(F)c2c(F)c([B-](c3c(F)c(F)c4c(F)c(F)c(F)c(F)c4c3F)(c3c(F)c(F)c4c(F)c(F)c(F)c(F)c4c3F)c3c(F)c(F)c4c(F)c(F)c(F)c(F)c4c3F)c(F)c(F)c2c1F [DOdMH-BF28, 2,4,6-trimethyl-N,N-dioctadecylbenzenaminium-BF28] |  | 
7 | >40 | 3.0 | 0.73 | >190 | CCCCCCCCCCCCCCCCCC[NH+](CCCCCCCCCCCCCCCCCC)c1ccccc1C.Fc1c(F)c(F)c2c(F)c([B-](c3c(F)c(F)c4c(F)c(F)c(F)c(F)c4c3F)(c3c(F)c(F)c4c(F)c(F)c(F)c(F)c4c3F)c3c(F)c(F)c4c(F)c(F)c(F)c(F)c4c3F)c(F)c(F)c2c1F [DOdoTH-BF28, 2-methyl-N,N-dioctadecylbenzenaminium-BF28] |  | 
8 |  |  |  |  | CCCCCCCCCCCCCCCCCC[NH+](C)c1ccc(CCCC)cc1.Fc1c(F)c(F)c2c(F)c([B-](c3c(F)c(F)c4c(F)c(F)c(F)c(F)c4c3F)(c3c(F)c(F)c4c(F)c(F)c(F)c(F)c4c3F)c3c(F)c(F)c4c(F)c(F)c(F)c(F)c4c3F)c(F)c(F)c2c1F [LCSA 1] | 413.4 kg/mmol/h and 510.6 kg/mmol/h and 426.4 kg/mmol/h and 452.7 kg/mmol/h | activity, molecular weight and co-monomer incorporation with methyl cyclohexane versus toluene as activator diluent ([1]; Cat 1): remain approximately the same; activity [1, 5]: 332.7 kg/mmol/h and 377.7 kg/mmol/h and 393.6 kg/mmol/h and 367.2 kg/mmol/h
9 |  |  |  |  | CCCCCCc1ccc([NH+](C)C)cc1.Fc1c(F)c(F)c([B-](c2c(F)c(F)c(F)c(F)c2F)(c2c(F)c(F)c(F)c(F)c2F)c2c(F)c(F)c(F)c(F)c2F)c(F)c1F [Hex-DMAH-BF20, 4-hexyl-N,N-dimethylanilinium-BF20] |  | activity ([4]; 85 °C, 135 psi): 150 kg/mmol/h and 163 kg/mmol/h and 192 kg/mmol/h; activity ([4]; 100 °C, 150 psi): 47 kg/mmol/h and 81 kg/mmol/h and 75 kg/mmol/h
10 |  |  |  |  | N,N-dimethyl anilinium tetrakis(perfluorobiphenyl) [C3, reference compound] | 692.3 kg/mmol/h and 711.1 kg/mmol/h and 841.8 kg/mmol/h and 803.7 kg/mmol/h | quantity of polymer obtained with methylcyclohexane as diluent ([1]; Cat 1, activator in methylcyclohexane): insufficient for analysis
11 |  |  |  |  | CCCCCCCCCCCCCCCCCCc1ccc([NH+](C)CCCCCCCCCCCCCCCCCC)cc1.Fc1c(F)c(F)c2c(F)c([B-](c3c(F)c(F)c4c(F)c(F)c(F)c(F)c4c3F)(c3c(F)c(F)c4c(F)c(F)c(F)c(F)c4c3F)c3c(F)c(F)c4c(F)c(F)c(F)c(F)c4c3F)c(F)c(F)c2c1F [LCSA 2] | 477.7 kg/mmol/h and 430.3 kg/mmol/h and 405.6 kg/mmol/h and 423.2 kg/mmol/h | activity, molecular weight and co-monomer incorporation with methyl cyclohexane versus toluene as activator diluent ([1]; Cat 1): remain approximately the same; activity [1, 5]: 451.4 kg/mmol/h and 388.5 kg/mmol/h and 412.4 kg/mmol/h and 455.5 kg/mmol/h
